{
  "source": "patent US20070015827A1",
  "about": "“Methods and compositions for treating ophthalmic conditions via serum retinol, serum retinol binding protein (RBP), and/or serum retinol-RBP modulation” (Sytera, Inc., priority 2005, published 2007)",
  "key": {"wild-type mice": {"test_system": "wild-type mice", "experiment": "Ocular retinoid content after 7 days of HPR (HPLC)", "type": "in vivo, mouse", "conditions": "HPR 5-20 mg/kg/day i.p.", "procedure": "(§1) In one study, wild-type mice were given varied doses of HPR (5-20 mg/kg/day, i.p. in DMSO) for 7 days. Control mice received only DMSO. Mice were maintained on a 12 h/12 h light/dark cycle throughout the treatment period. At the end of the study, the ocular retinoid content was determined by high-performance liquid chromatography (HPLC). Light-adapted, rather than dark-adapted, retinoid profiles were obtained so that a measure of retinoids could be obtained while the visual cycle was actively regenerating chromophore. […] This finding is in sharp contrast to data obtained from analysis of mice treated with 13-cis retinoic acid. […] Reduced 11cRDH activity would lead to reduced levels of 11-cis retinal and accumulation of 11-cis retinol. Free 11-cis retinol would be rapidly esterified via LRAT activity resulting in increased 11-cis retinyl esters. This effect of 13-cis retinoic acid on retinoid biosynthesis was also observed in rats in Sieving P A, et al., Proc Natl Acad Sci USA. 2001; 98(4): 1835-40."}, "[1]": {"experiment": "Ocular retinoid content after 7 days of HPR (HPLC)", "type": "in vivo, mouse", "conditions": "mouse, RPE (retinal pigment epithelium), intraperitoneal, HPR 5-20 mg/kg/day i.p. in DMSO, dose-dependent, read-out: accumulation of HPR within the RPE", "procedure": "as §1"}, "[2]": {"conditions": "cited from earlier work"}, "abca4 null mutant mice": {"test_system": "abca4 null mutant mice", "experiment": "A2E and A2PE-H2 in eyes after chronic treatment (HPLC)", "type": "in vivo, mouse", "procedure": "Tissue Extraction. Eye samples were thawed on ice in 1 ml of PBS, pH 7.2 and homogenized by hand using a Duall glass-glass homogenizer. The sample was further homogenized following the addition of 1 ml chlorofomm/methanol (2:1, v/v). The sample was transferred to a boroscilicate tube and lipids were extracted into 4 mls of chloroform. The organic extract was washed with 3 mls PBS, pH 7.2 and the samples were then centrifuged at 3,000×g, 10 min. The choloroform phase was decanted and the aqueous phase was re-extracted with another 4 mls of chloroform. Following centrifugation, the chloroform phases were combined and the samples were taken to dryness under nitrogen gas. Samples residues were resuspended in 100 μl hexane and analyzed by HPLC as described below.\nHPLC Analysis. Chromatographic separations were achieved on an Agilent Zorbax Rx-Sil Column (5 μm, 4.6×250 mm) using an Agilent 1100 series liquid chromatograph equipped with fluorescence and diode array detectors. The mobile phase (hexane/2-propanol/ethanol/25 mM KH2PO4, pH 7.0/acetic acid; 485/376/100/50/0.275, v/v) was delivered at 1 ml/min. Sample peak identification was made by comparison to retention time and absorbance spectra of authentic standards. Data are reported as peak fluorescence (L.U.) obtained from the fluorescence detector.\nWe initiated a one-month study to evaluate the effects of HPR on reduction of A2E and A2E precursors in abca4 null mutant mice. HPR was administered in DMSO (20 mg/kg, ip) to abca4 null mutant mice (BL6/129, aged 2 months) daily for a period of 28 days. Control age/strain matched mice received only the DMSO vehicle. Mice were sampled at 0, 14, and 28 days (n=3 per group), the eyes were enucleated and chloroform-soluble constituents (lipids, retinoids and lipid-retinoid conjugates) were extracted. Mice were sacrificed by cervical dislocation, the eyes were enucleated and individually snap frozen in cryo vials. The sample extracts were then analyzed by HPLC with on-line fluorescence detection. Results from this study show remarkable, early reductions in the A2E precursor, A2PE-H2, see FIG. 4a, and subsequent reductions in A2E, see FIG. 4b. […] A similar study may be undertaken to ascertain effects of HPR treatment on the electroretinographic and morphological phenotypes.\nABCA4 null mutant mice were given the indicated dose of HPR in DMSO or DMSO alone daily for 28 days (n=16 mice per treatment group). At study onset, mice in the 2.5 mg/kg group were 2 months of age, mice in the other treatment groups were 3 months of age. At the indicated times, representative mice were taken from each group (n =4) for analysis of A2E precursor compounds (see FIG. 10, A2PE-H2, panels A, C and E) and A2E (see FIG. 10, panels B, D and F). Eyes were enucleated, hemisected and lipid soluble components were extracted from the posterior pole by chloroform/methanol-water phase partitioning. Sample extracts were analyzed by LC. Identity of the eluted compounds was confirmed by UV-vis absorption spectroscopy and co-elution of sample peaks with authentic standards. Note: limitations in appropriately age and strain-matched mice in the 10 mg/kg group prevented analysis at the 14-day interval.\nExtraction and Analysis of Retinoids and A2E. Steady-state levels of retinoids and A2E in eyecups of ABCA4−/− mice were determined following daily administration (28 days) of HPR (FIG. 12). Mice were sacrificed, the eyes enucleated, and the posterior portion of each eye was used for extraction of retinoids or A2E. Methodologies used for extraction of retinoids and A2E from eye tissue and HPLC analysis techniques have been described. See, e.g., Mata N L, Weng J, Travis G H. Biosynthesis of a major lipofuscin fluorophore in mice and humans with ABCR-mediated retinal and macular degeneration. Proc Natl Acad Sci USA. 2000; 97:7154-7159; Weng J, et al.; Cell. 1999;98:13-23; Mata N L, et al.; Invest. Ophthalmol. Visual Sci. 2001; 42:1685-1690. […]"}},
  "data": [
    {"smiles": "CC1=C(/C=C/C(C)=C/C=C/C(C)=C/C(=O)Nc2ccc(O)cc2)C(C)(C)CCC1", "note": "[HPR, N-(4-hydroxyphenyl)retinamide]", "values": [
      {"measurement": "differences in light-adapted retinoid levels", "setting": "wild-type mice", "result": "no significant differences"},
      {"measurement": "concentration at 7 days", "setting": "[1]", "result": "4 to 6", "unit": "µM"},
      {"measurement": "observed toxicities", "setting": "[2]; 4800 mg/m^2 dose, three times daily", "result": "minimal"},
      {"measurement": "plasma concentration after high fat meals versus carbohydrate meals", "setting": "[2]; human, in vivo", "result": "three times greater"},
      {"measurement": "reduction in A2PE-H2", "setting": "abca4 null mutant mice; HPR 2.5 mg/kg daily, 28 days, 2-month old mice", "result": "~47", "unit": "%"},
      {"measurement": "less A2E accumulated compared to DMSO littermates", "setting": "abca4 null mutant mice; HPR 10 mg/kg daily, 28 days", "result": "~50", "unit": "%"},
      {"measurement": "reduction of A2E", "setting": "abca4 null mutant mice; HPR 20 mg/kg ip daily, 28 days", "result": 55, "unit": "%"},
      {"measurement": "reduction of A2PE-H2", "setting": "abca4 null mutant mice; HPR 20 mg/kg ip daily, 28 days", "result": 70, "unit": "%"},
      {"measurement": "accumulation of A2E and lipofuscin autofluorescence in the RPE (in words)", "setting": "abca4 null mutant mice; mouse, in vivo", "result": "arrested accumulation"}
    ]}
  ]
}
